# Test system: H526, KU812, CMK11-5 and Jurkat cells
# Experiment: Cell proliferation assays of antibody 20507 ADCs, results in words over the cell line panel
# Format: cell-based, human
# Conditions: antigen expressing cells versus Jurkat
# Experimental: (§1) To measure antigen-dependent cell killing, cell proliferation assays were conducted with Cell-Titer-Glo™ (Promega) five days after different cell types were incubated with various concentrations of ADCs (Riss et al., (2004) Assay Drug Dev Technol. 2:51-62).
row,SMILES,Cell killing activity of antibody 20507 ADCs
1,"CC[C@H](C)[C@@H]([C@@H](CC(=O)N1CCC[C@H]1[C@H](OC)[C@@H](C)C(=O)N[C@H](Cc1ccccc1)C(=O)Nc1ccc(CNC(=O)CCCCCN2C(=O)C=CC2=O)cc1)OC)N(C)C(=O)[C@@H](N=C(N(C)C)N(C)C)C(C)C [CL-1, N-(4-((R)-2-((2R,3R)-3-((S)-1-((3R,4S,5S)-4-((S)-2-((bis(dimethylamino)methylene)amino)-N,3-dimethylbutanamido)-3-methoxy-5-methylheptanoyl)pyrrolidin-2-yl)-3-methoxy-2-methylpropanamido)-3-phenylpropanamido)benzyl)-6-(2,5-dioxo-2,5-dihydro-1H-pyrrol-1-yl)hexanamide]",active when conjugated to antibody 20507
2,"CC[C@H](C)C([C@@H](CC(=O)N1CCC[C@H]1[C@H](OC)[C@@H](C)C(=O)N[C@@H](Cc1ccccc1)C(=O)NS(=O)(=O)CCCn1cc(CN2C(=O)C=CC2=O)nn1)OC)N(C)C(=O)[C@@H](N=C(N(C)C)N(C)C)C(C)C (stereo partly drawn) [CL-9, (S)-2-((Bis(dimethylamino)methylene)amino)-1-(((3R,4S,5S)-1-((S)-2-((1R,2R)-3-(((S)-N-1-(3-(4-((2,5-dioxo-2,5-dihydro-1H-pyrrol-1-yl)methyl)-1H-1,2,3-triazol-1-yl)propylsulfonamido)-1-oxo-3-phenylpropan-2-yl)amino)-1-methoxy-2-methyl-3-oxopropyl)pyrrolidin-1-yl)-3-methoxy-5-methyl-1-oxoheptan-4-yl)(methyl)amino)-3-methyl-1-oxobutane]",active when conjugated to antibody 20507
3,"CC[C@H](C)[C@@H]([C@@H](CC(=O)N1CCC[C@H]1[C@H](OC)[C@@H](C)C(=O)N[C@@H](Cc1ccccc1)C(=O)O)OC)N(C)C(=O)[C@@H](/N=C(\N(C)C)N1CCN(C(=O)CCCCCN2C(=O)C=CC2=O)CC1)C(C)C [NL-4, (S)-2-((2R,3R)-3-((S)-1-((3R,4S,5S)-4-((S)-2-((E)-((dimethylamino)(4-(6-(2,5-dioxo-2,5-dihydro-1H-pyrrol-1-yl)hexanoyl)piperazin-1-yl)methylene)amino)-N,3-dimethylbutanamido)-3-methoxy-5-methylheptanoyl)pyrrolidin-2-yl)-3-methoxy-2-methylpropanamido)-3-phenylpropanoic acid]",active when conjugated to antibody 20507

# Test system: MDA-MB-231 clone 16, MDA-MB-231 clone 40, JimT-1 and HCC1954 cells
# Experiment: Cell proliferation assays of anti-Her2 ADCs, results in words over the cell line panel
# Format: cell-based, human
# Conditions: Her2 high, medium and low cell lines
# Source text: Cells that naturally express target antigens or cell lines engineered to express target antigens are frequently used to assay the activity and potency of ADCs. For evaluation of the cell killing potency of anti-Her2 antibody ADCs in vitro, two engineered cell lines, MDA-MB-231 clone 16 and clone 40, and two endogenous cell lines, JimT-1 and HCC1954 cells were employed (Clinchy B, Gazdar A, Rabinovsky R, Yefenof E, Gordon B, Vitetta E S. Breast Cancer Res Treat. (2000) 61:217-228). MDA-MB-231 clone 16 cells stably express high copy numbers (˜5×10^5copies/cell) of recombinant human Her2 on the cell surface, while clone 40 expresses human Her2 at low levels (˜5×10^3 copies/cell). HCC1954 cells endogenously express high levels (˜5×10^5 copies/cell) of […] human Her2 in the surface while JimT-1 cells express human Her2 at a medium level (˜8×10^4 copies/cell). NCI-N87 cells express high levels of Her2 while A375 cell express low levels of Her2. An ADC should kill cells in an antigen-dependent manner, meaning that only cells that express sufficient antigen in the cell surface but not cells lacking the antigen will be killed. Therefore cell killing should not be observed MDA-MB-231 clone 40 cells.
# as §1
# Anti-Her2 ADCs prepared with compounds of the invention and conjugated site-specifically to anti-Her2 Cys mutant antibodies (see Table 5) were assayed in the aforementioned four cell lines to evaluate their cytotoxicity. […] In JimT-1 cells, a cell line with a medium level of Her2 expression, the cell killing activities by the ADCs varied widely. […] Many ADCs killed JimT-1 cell as effectively as HCC1954 and MDAMB231-16 cells (FIG. 1, Table 15). […] The significant differences of cytotoxic potency observed in JimT-1 cell amoung anti-Her2-LC-S159C ADCs have made it possible to rank the potency of the payloads. […] This is in contrast to the in vitro cell killing of both high and low Her2 expressing cell lines by free, unconjugated compounds of the invention (see Example 106,Table 14).
row,SMILES,Cell killing activity of anti-Her2 ADCs
1,"CC[C@H](C)[C@@H]([C@@H](CC(=O)N1CCC[C@H]1[C@H](OC)[C@@H](C)C(=O)N[C@@H](Cc1ccccc1)P(=O)(O)O)OC)N(C)C(=O)[C@@H](N=C(N(C)C)N1CCN(C(=O)CCCCCN2C(=O)C=CC2=O)CC1)C(C)C (stereo in doubt) [NL-19, ((R)-1-((2R,3R)-3-((S)-1-((3R,4S,5S)-4-((S)-2-((E)-((dimethylamino)(4-(6-(2,5-dioxo-2,5-dihydro-1H-pyrrol-1-yl)hexanoyl)piperazin-1-yl)methylene)amino)-N,3-dimethylbutanamido)-3-methoxy-5-methylheptanoyl)pyrrolidin-2-yl)-3-methoxy-2-methylpropanamido)-2-phenylethyl)phosphonic acid]",active in HCC1954 and MDAMB231-16 cells but not in JimT-1 cells
2,"CC[C@H](C)[C@@H]([C@@H](CC(=O)N1CCC[C@H]1[C@H](OC)[C@@H](C)C(=O)N[C@@H](Cc1ccccc1)C(=O)Nc1ccc(CNC(=O)CCCCCN2C(=O)C=CC2=O)cc1)OC)N(C)C(=O)[C@@H](/N=C(\N(C)C)N1CCNCC1)C(C)C [CL-5, N-(4-((S)-2-((2R,3R)-3-((S)-1-((3R,4S,5S)-4-((S)-2-((E)-((dimethylamino)(piperazin-1-yl)methylene)amino)-N,3-dimethylbutanamido)-3-methoxy-5-methylheptanoyl)pyrrolidin-2-yl)-3-methoxy-2-methylpropanamido)-3-phenylpropanamido)benzyl)-6-(2,5-dioxo-2,5-dihydro-1H-pyrrol-1-yl)hexanamide]",active in HCC1954 and MDAMB231-16 cells but not in JimT-1 cells
3,"CC[C@H](C)[C@@H]([C@@H](CC(=O)N1CCC[C@H]1[C@H](OC)[C@@H](C)C(=O)N[C@@H](Cc1ccccc1)C(=O)NS(=O)(=O)CCCn1cc(CN2C(=O)C=CC2=O)nn1)OC)N(C)C(=O)[C@@H](Nc1nccc(C)n1)C(C)C [CL-24, (S)-2-((4-methylpyrimidin-2-yl)amino)-1-(((3R,4S,5S)-1-((S)-2-((1R,2R)-3-(((S)-N-1-(3-(4-((2,5-dioxo-2,5-dihydro-1H-pyrrol-1-yl)methyl)-1H-1,2,3-triazol-1-yl)propylsulfonamido)-1-oxo-3-phenylpropan-2-yl)amino)-1-methoxy-2-methyl-3-oxopropyl)pyrrolidin-1-yl)-3-methoxy-5-methyl-1-oxoheptan-4-yl)(methyl)amino)-3-methyl-1-oxobutane]",active in HCC1954 and MDAMB231-16 cells but not in JimT-1 cells
4,"CC[C@H](C)[C@@H]([C@@H](CC(=O)N1CCC[C@H]1[C@H](OC)[C@@H](C)C(=O)N[C@@H](Cc1ccccc1)P(=O)(O)O)OC)N(C)C(=O)[C@@H](/N=C(\N(C)C)N1CCN(C(=O)CCCn2cc(CN3C(=O)C=CC3=O)nn2)CC1)C(C)C [NL-21, ((R)-1-((2R,3R)-3-((S)-1-((3R,4S,5S)-4-((S)-2-((E)-((dimethylamino)(4-(4-(4-((2,5-dioxo-2,5-dihydro-1H-pyrrol-1-yl)methyl)-1H-1,2,3-triazol-1-yl)butanoyl)piperazin-1-yl)methylene)amino)-N,3-dimethylbutanamido)-3-methoxy-5-methylheptanoyl)pyrrolidin-2-yl)-3-methoxy-2-methylpropanamido)-2-phenylethyl)phosphonic acid]",active in HCC1954 and MDAMB231-16 cells but not in JimT-1 cells
5,"CC[C@H](C)[C@@H]([C@@H](CC(=O)N1CCC[C@H]1[C@H](OC)[C@@H](C)C(=O)N[C@@H](Cc1ccccc1)C(=O)O)OC)N(C)C(=O)[C@@H](NC(=O)N(CCCNC(=O)CCCCCN1C(=O)C=CC1=O)C(C)C)C(C)C [NL-30, (S)-2-((2R,3R)-3-((S)-1-((3R,4S,7S)-4-((S)-sec-butyl)-20-(2,5-dioxo-2,5-dihydro-1H-pyrrol-1-yl)-7,10-diisopropyl-3-methoxy-5-methyl-6,9,15-trioxo-5,8,10,14-tetraazaicosan-1-oyl)pyrrolidin-2-yl)-3-methoxy-2-methylpropanamido)-3-phenylpropanoic acid]",active in HCC1954 and MDAMB231-16 cells but not in JimT-1 cells
6,"CC[C@H](C)[C@@H]([C@@H](CC(=O)N1CCC[C@H]1[C@H](OC)[C@@H](C)C(=O)N[C@@H](Cc1ccccc1)C(=O)O)OC)N(C)C(=O)[C@@H](Nc1nc(C)cc(C(=O)NCCNC(=O)CCCCCN2C(=O)C=CC2=O)n1)C(C)C [NL-38, (S)-2-((2R,3R)-3-((S)-1-((3R,4S,5S)-4-((S)-2-((4-((2-(6-(2,5-dioxo-2,5-dihydro-1H-pyrrol-1-yl)hexanamido)ethyl)carbamoyl)-6-methylpyrimidin-2-yl)amino)-N,3-dimethylbutanamido)-3-methoxy-5-methylheptanoyl)pyrrolidin-2-yl)-3-methoxy-2-methylpropanamido)-3-phenylpropanoic acid]",active in HCC1954 and MDAMB231-16 cells but not in JimT-1 cells
